Paper PMC5113208 (2016)

Tested on: RNA Spinach (RNA, aptamer) GGACGCGACCGAAAUGGUGAAGGACGGGUCCAGUGCGAAACACGCACUGUUGAGUAGAGUGUGAGCUCCGUAACUGGUCGCGUC
Experiment: fluorescence titration
Settings: 140 mM KCl, 1 mM MgCl2; 10 mM NaH2PO4 pH 7.2, 0.05% Tween-20, room temperature

- KD: 420 ± 40 nM
Structure (SMILES): CC1=N/C(=C\c2cc(F)c(O)c(F)c2)C(=O)N1C
